≈ marks a conversion by molar mass, not a printed value. Where two headings read alike, the source gives them in different places.
What was measured:
[1] = system: E. coli S30 bacterial extract; test: Coupled bacterial transcription/translation assay (luciferase reporter); format: biochemical
Procedure: Coupled Bacterial Transcription/Translation Assay. The DNA template, pBestLuc™ (Promega), is a plasmid containing a reporter gene for firefly luciferase fused to a strong tac promoter and ribosome binding site. Messenger RNA from 1 μg pBestLuc was transcribed and translated in E. coli S30 bacterial extract in the presence or absence of test compound. Compounds were tested in a black 96 well microtiter plate with an assay volume of 35 μL. Each test well contained: 5 μL test compound, 13 μL S30 premix (Promega), 4 μL 10× complete amino acid mix (1 mM each), 5 μL E. coli S30 extract and 8 μL of 0.125 μg/μL pBestLuc™. The transcription/translation reaction was incubated for 35 minutes at 37° C. followed by detection of functional luciferase with the addition of 30 μL LucLite™ (Packard). Light output was quantitated on a Packard TopCount.

E. hirae = test: Minimum inhibitory concentration (MIC), E. hirae; format: cell-based; conditions: Enterococcus hirae, Table 6
Procedure: (§1) Determination of Minimum Inhibitory Concentrations (MICs). The assays were carried out in […] volume in duplicate in 96-well clear flat-bottom plates. The bacterial suspension from an overnight culture growth in appropriate medium was added to a solution of test compound in 4% DMSO in water. Final bacterial inoculum was approximately 10^5-10^6 CFU/well. The percent growth of the bacteria in test wells relative to that observed for a well containing no compound was determined by measuring absorbance at 595 nm (A595) after 24 h. […] Both ampicillin and tetracycline is used as antibiotic-positive controls in each screening assay for S. pyogenes, E. coli imp-, E. coli, S. aureus, E. faecalis, K pneumoniae and P. vulgaris. Ciprofloxacin is used as an antibiotic positive control in each screening assay for P. aeruginosa.

K. pneumoniae = test: Minimum inhibitory concentration (MIC), K. pneumoniae; format: cell-based; conditions: Klebsiella pneumoniae, Table 6
Procedure: (§2) Bacterial Strains. The Streptococcus pyogenes strains, Klebsiella pneumoniae, Escherichia coli, Staphylococcus aureus, Enterococcus faecalis used in the antibacterial activity studies ATCC 14289, 49399, 13883, 25922, 13709, 29212, respectively, are obtained from the American Type Culture Collection, Rockville, Md. The strain E. coli imp- is a mutant strain of wild type E. coli with increased outer membrane permeability and was grown in LB broth at 37 ° C. S. pyogenes strain is grown in Todd-Hewitt broth. S. aureus is grown in trypticase soy broth, E. faecalis in Todd-Hewitt broth, wild type E. coli and K. pneumoniae, in nutrient broth.
as §1, with “Ciprofloxacin is used as an antibiotic positive control in each screening assay for P. aeruginosa.” left out

E. coli = test: Minimum inhibitory concentration (MIC), E. coli; format: cell-based; conditions: Escherichia coli, Table 6
Procedure: as §2
as §1, with “Ciprofloxacin is used as an antibiotic positive control in each screening assay for P. aeruginosa.” left out

S. pyogenes = test: Minimum inhibitory concentration (MIC), S. pyogenes; format: cell-based; conditions: Streptococcus pyogenes
Procedure: as §2, §1

S. aureus = test: Minimum inhibitory concentration (MIC), S. aureus; format: cell-based; conditions: Staphylococcus aureus, Table 6
Procedure: as §2
as §1, with “Ciprofloxacin is used as an antibiotic positive control in each screening assay for P. aeruginosa.” left out

[2] = system: 58 nucleotide fragment of E. coli 23S ribosomal RNA (23S rRNA); test: Mass-spec binding assay (ESI-FTICR-MS); conditions: Table 5, amino acid spacer compounds; read-out: approx. Kd
Procedure: Binding affinity of test compounds to a 58 nucleotide fragment of E. coli 23S ribosomal RNA (23S rRNA) was determined using electrospray ionization Fourier transform ion cyclotron resonance mass spectrometry (ESI-FTICR-MS). The structure of the 23S rRNA fragment and its preparation is described by Conn et al (Science, 1999, 284(5417):1171) and Hinck et al (J. Mol. Biol., 1997, 274(1): 101) both incorporated herein by reference. The mass spec assay determined the exact chemical composition of ligands that bound to the target rRNA and determined relative or absolute dissociation (KD) of ligands for the target. In the first step of the assay, a mixture of 23S rRNA target and test compound were moved from solution into the gas phase by electrospray ionization. The FT-ICR mass spectrometer served as a parallel set of “scales”, simultaneously measuring the exact molecular masses of the small molecules that bound to the RNA with great accuracy. The mass measurement error for an RNA-ligand complex weighing 10 kDa equals the mass of an electron. At this level of mass accuracy, each compound in the mixture was “labeled” by its molecular formula and exact molecular mass. […]

[3] = S. pyogenes, Table 6, read-out: MIC
[4] = Table 5, amino acid spacer compounds

## O=C(Nc1cccc(-c2ccc(C(=O)N3CCNCC3)o2)c1)c1ccc2[nH]c(=O)c(=O)[nH]c2c1
[1]; Table 4, heteroaryl compounds
  IC50: 25 µM

## O=C(Nc1cccc(-c2nc(C(=O)N3CCNCC3)cs2)c1)c1ccc2[nH]c(=O)c(=O)[nH]c2c1
[1]; Table 4, heteroaryl compounds
  IC50: 75 µM

## O=C(Nc1cccc(-c2ccc(S(=O)(=O)N3CCNCC3)s2)c1)c1ccc2[nH]c(=O)c(=O)[nH]c2c1
[1]; Table 4, heteroaryl compounds
  IC50: 35 µM

## O=c1[nH]c2ccc(S(=O)(=O)Nc3cccc(-c4ccc(CN5CCNCC5)s4)c3)cc2[nH]c1=O
[1]; Table 4, heteroaryl compounds
  IC50: 80 µM

## O=C(c1ccc(-c2cccc(NS(=O)(=O)c3ccc4[nH]c(=O)c(=O)[nH]c4c3)c2)s1)N1CCNCC1
[1]; Table 4, heteroaryl compounds
  IC50: 80 µM

## O=C(Nc1ccc(-c2ccc(CN3CCNCC3)s2)cc1)c1ccc2[nH]c(=O)c(=O)[nH]c2c1
[1]; Table 4, heteroaryl compounds
  IC50: 55 µM

## O=C(CNC(=O)c1ccc2[nH]c(=O)c(=O)[nH]c2c1)Nc1cccc(-c2ccc(C(=O)N3CCNCC3)s2)c1
[1]; Table 4, heteroaryl compounds
  IC50: 100 µM

## O=C(Nc1ccc(-c2ccc(C(=O)N3CCNCC3)s2)cc1)c1ccc2[nH]c(=O)c(=O)[nH]c2c1
[1]; Table 4, heteroaryl compounds
  IC50: 50 µM

## O=C(Nc1ccc(-c2ccc(C(=O)Nc3ccc(C(=O)N4CCNCC4)cc3)s2)cc1)c1ccc2[nH]c(=O)c(=O)[nH]c2c1
[1]; Table 4, heteroaryl compounds
  IC50: 30 µM

## O=C(Nc1cccc(-c2ccc(C(=O)N3CCC[C@H]3C(=O)N3CCNCC3)s2)c1)c1ccc2[nH]c(=O)c(=O)[nH]c2c1
[1]; Table 4, heteroaryl compounds
  IC50: 25 µM

## CCn1cc(C(=O)Nc2cccc(-c3ccc(C(=O)N4CCNCC4)s3)c2)c(=O)c2ccc(C)nc21
E. hirae
  MIC: 50 to 100 µM (≈ 25.1 to 50.2 µg/mL)
K. pneumoniae
  MIC: 50 to 100 µM (≈ 25.1 to 50.2 µg/mL)
E. coli
  MIC: 50 to 100 µM (≈ 25.1 to 50.2 µg/mL)
S. pyogenes; [3]
  MIC: 25 to 50 µM (≈ 12.5 to 25.1 µg/mL)
S. aureus
  MIC: 50 to 100 µM (≈ 25.1 to 50.2 µg/mL)

## NCCC(NC(=O)c1ccc(-c2cccc(NC(=O)c3ccc4[nH]c(=O)c(=O)[nH]c4c3)c2)s1)C(=O)N1CCNCC1 (centres unmarked)
S. pyogenes
  MIC: 50 to 100 µM (≈ 28.8 to 57.6 µg/mL)

## CCn1cc(C(=O)Nc2ccc(-c3ccc(C(=O)N4CCNCC4)s3)cc2)c(=O)c2ccc(C)nc21
E. coli
  MIC: 50 to 100 µM (≈ 25.1 to 50.2 µg/mL)
S. pyogenes; [3]
  MIC: 50 to 100 µM (≈ 25.1 to 50.2 µg/mL)

## O=C(Nc1cccc(-c2ccc(C(=O)N3CCNCC3)s2)c1)c1ccc2[nH]c(=O)c(=O)[nH]c2c1 [Structure 1]
[2]
  Kd: 79 µM
[1]; [4]
  IC50: 25 µM

## O=C(Nc1cccc(-c2ccc(C(=O)NCCC(=O)N3CCNCC3)s2)c1)c1ccc2[nH]c(=O)c(=O)[nH]c2c1 [Structure 3]
[2]
  Kd: 139 µM
[1]; [4]
  IC50: 35 µM

## O=C(Nc1cccc(-c2ccc(C(=O)N3CCNCC3)s2)c1)c1ccc2[nH]c(=O)c(=O)[nH]c2c1 [drawing 51]
[1]; Table 4, heteroaryl compounds
  IC50: 25 µM
